Earlier results in paper PMC7904743, “WIDOCK: a reactive docking protocol for virtual screening of covalent inhibitors” (Journal of Computer-Aided Molecular Design, 2021).
Like-named read-outs stand apart in the source and are kept apart here.

Experiments:
[1] = thiol reactivity, cited from earlier work
NUDT7 = settings: protein labeling at 200 μM; experimental actives if % labeling higher than 50%; cited from earlier work
OTUB2 = settings: experimental actives if % labeling higher than 50%, cited from earlier work
[2] = natural log of average rate constant k
[3] = natural logarithm of average rate constant
[4] = natural log of average kinetic rate constant
[5] = natural log of average rate constant

Row | SMILES | ln(avg k) [1, 2] | ln(avg k) [1, 3] | NUDT7 % labeling (NUDT7) [%] | OTUB2 % labeling (OTUB2) [%] | ln(avg k) [1, 4] | ln(avg k) [1, 5] | OTUB2 % labeling (OTUB2; OTUB2 protein labeling) [%]
1 | O=C(CCl)Nc1ccc(-c2nnc3n2CCCCC3)cc1 [PCM-0102101, O=C(CCl)Nc1ccc(-c2nnc3n2CCCCC3)cc1] | -15.815 | -15.815 | 0 | 28 |  |  | 
2 | COC(=O)C1CCN(C(=O)CCl)CC1 [PCM-0102978, COC(=O)C1CCN(C(=O)CCl)CC1] |  |  | 0 |  | -16.559 | -16.559 | 0
3 | CC(=O)c1oc2ccccc2c1NC(=O)CCl [PCM-0102918, CC(=O)c1oc2ccccc2c1NC(=O)CCl] |  |  | 39 |  | -15.842 | -15.842 | 0
4 | CC(C)(C)n1ncc2c1CCCC2NC(=O)CCl (centres unmarked) [PCM-0103046, CC(C)(C)n1ncc2c1CCCC2NC(=O)CCl] |  |  | 0 |  | -16.467 | -16.467 | 36
5 | CC1CN(C(=O)CCl)CC(C)O1 (centres unmarked) [PCM-0102796, CC1CN(C(=O)CCl)CC(C)O1] |  |  | 0 |  | -15.522 | -15.522 | 0
6 | O=C(CCl)N1CCN(Cc2ccc3c(c2)OCCO3)CC1 [PCM-0102386, O=C(CCl)N1CCN(Cc2ccc3c(c2)OCCO3)CC1] | -15.669 | -15.669 | 0 | 0 |  |  | 
7 | CCN(C(=O)CCl)C1CCS(=O)(=O)C1 (centres unmarked) [PCM-0102105, CCN(C(=O)CCl)C1CCS(=O)(=O)C1] | -15.384 | -15.384 | 0 | 0 |  |  | 
8 | CN(C(=O)CCl)C1CCS(=O)(=O)C1 (centres unmarked) [PCM-0102178, CN(C(=O)CCl)C1CCS(=O)(=O)C1] | -15.027 | -15.027 | 0 | 0 |  |  | 
9 | O=C(CCl)N=c1sccn1Cc1ccccc1Cl [PCM-0102550, O=C(CCl)N=c1sccn1Cc1ccccc1Cl] | -15.426 | -15.426 | 11 | 0 |  |  | 
10 | O=C(CCl)NC1(c2ccccc2)CCC1 [PCM-0102935, O=C(CCl)NC1(c2ccccc2)CCC1] |  |  | 29 |  | -16.140 | -16.140 | 0
11 | CN(Cc1ccccc1F)C(=O)CCl [PCM-0102787, CN(Cc1ccccc1F)C(=O)CCl] |  |  | 0 |  | -16.194 | -16.194 | 0
12 | CN(C(=O)CCl)C(C)(C)C#N [PCM-0102782, CN(C(=O)CCl)C(C)(C)C#N] |  |  | 0 |  | -16.514 | -16.514 | 0
13 | CN(C(=O)CCl)c1ccc([N+](=O)[O-])cc1 [PCM-0102669, CN(C(=O)CCl)c1ccc([N+](=O)[O-])cc1] | -15.479 | -15.479 | 14 | 0 |  |  | 
14 | O=C(CCl)N1CCN(Cc2cccc3ccccc23)CC1 [PCM-0102287, O=C(CCl)N1CCN(Cc2cccc3ccccc23)CC1] | -15.635 | -15.635 | 0 | 29 |  |  | 
15 | CC(NC(=O)CCl)c1ccco1 (centres unmarked) [PCM-0102798, CC(NC(=O)CCl)c1ccco1] |  |  | 14 |  | -16.737 | -16.737 | 19
16 | O=C(CCl)Nc1cccc(N2CCCC2=O)c1 [PCM-0102179, O=C(CCl)Nc1cccc(N2CCCC2=O)c1] | -15.495 | -15.495 | 12 | 47 |  |  | 
17 | O=C(CCl)Nc1ccc(I)cc1 [PCM-0102278, O=C(CCl)Nc1ccc(I)cc1] | -15.784 | -15.784 | 9 | 24 |  |  | 
18 | CC(C)(C)C(=O)NNC(=O)CCl [PCM-0102855, CC(C)(C)C(=O)NNC(=O)CCl] |  |  | 7 |  | -17.593 | -17.593 | 0

Row | SMILES | ln(avg k) [1, 2] | ln(avg k) [1, 3] | NUDT7 % labeling (NUDT7) [%] | OTUB2 % labeling (OTUB2) [%] | ln(avg k) [1, 4] | ln(avg k) [1, 5] | OTUB2 % labeling (OTUB2; OTUB2 protein labeling) [%]
19 | O=C(CCl)NCC1CCOC1 (centres unmarked) [PCM-0102596, O=C(CCl)NCC1CCOC1] | -16.248 | -16.248 | 0 | 13 |  |  | 
20 | O=C(CCl)Nc1ccccc1I [PCM-0102509, O=C(CCl)Nc1ccccc1I] | -16.748 | -16.748 | 0 | 0 |  |  | 
21 | CN(C)C(=O)CNC(=O)CCl [PCM-0102365, CN(C)C(=O)CNC(=O)CCl] | -17.142 | -17.142 | 0 | 0 |  |  | 
22 | CN(Cc1ccc(Cl)cc1)C(=O)CCl [PCM-0102344, CN(Cc1ccc(Cl)cc1)C(=O)CCl] | -15.486 | -15.486 | 34 | 0 |  |  | 
23 | O=C(CCl)NNC(=O)C1CC1 [PCM-0102776, O=C(CCl)NNC(=O)C1CC1] |  |  | 0 |  | -17.370 | -17.370 | 23
24 | O=C(CCl)Nc1cccc(I)c1 [PCM-0102154, O=C(CCl)Nc1cccc(I)c1] | -15.790 | -15.790 | 24 | 49 |  |  | 
25 | CCCNC(=O)NC(=O)CCl [PCM-0102702, CCCNC(=O)NC(=O)CCl] | -16.357 | -16.357 | 0 | 22 |  |  | 
26 | O=C(CCl)NCc1ccccn1 [PCM-0102950, O=C(CCl)NCc1ccccn1] |  |  | 0 |  | -17.514 | -17.514 | 0
27 | CCc1ccccc1NC(=O)CCl [PCM-0102369, CCc1ccccc1NC(=O)CCl] | -16.517 | -16.517 | 0 | 0 |  |  | 
28 | CCC1CN(C(=O)CCl)CCO1 (centres unmarked) [PCM-0102436, CCC1CN(C(=O)CCl)CCO1] | -15.658 | -15.658 | 0 | 0 |  |  | 
29 | O=C(CCl)N1CCCCC1 [PCM-0102514, O=C(CCl)N1CCCCC1] | -16.289 | -16.289 | 0 | 0 |  |  | 
30 | N#Cc1cccc(NC(=O)CCl)c1 [PCM-0103033, N#Cc1cccc(NC(=O)CCl)c1] |  |  | 0 |  | -15.647 | -15.647 | 23
31 | CS(C)(=O)=NC(=O)CCl [PCM-0102969, CS(C)(=O)=NC(=O)CCl] |  |  | 0 |  | -15.757 | -15.757 | 0
32 | N#CC1(NC(=O)CCl)CCCCCC1 [PCM-0102465, N#CC1(NC(=O)CCl)CCCCCC1] | -16.080 | -16.080 | 0 | 0 |  |  | 
33 | O=C(CCl)Nc1ccc([N+](=O)[O-])cc1Br [PCM-0102848, O=C(CCl)Nc1ccc([N+](=O)[O-])cc1Br] |  |  | 24 |  | -16.062 | -16.062 | 0
34 | CCOC(=O)N1CCN(C(=O)CCl)CC1 [PCM-0102861, CCOC(=O)N1CCN(C(=O)CCl)CC1] |  |  | 0 |  | -17.162 | -17.162 | 0
35 | Cc1ccsc1CN(C)C(=O)CCl [PCM-0102785, Cc1ccsc1CN(C)C(=O)CCl] |  |  | 20 |  | -15.849 | -15.849 | 0
